According to US9493501B2, “Methyltransferase inhibitors for treating cancer” (MEMORIAL SLOAN-KETTERING CANCER CENTER, priority 2011, dated 2016):

Assays:
G9a (913-1913) = target: T1, G9a (913-1913) (Homo sapiens, UniProt Q96KQ7); assay: Filter-paper methylation assay, G9a; format: biochemical; conditions: 20 nM enzyme, H3 (1-21 aa) peptide, 1 h
T1 construct: G9a (913-1913)

GLP1 (951-1235) = target: T2, GLP1 (951-1235) (Homo sapiens, UniProt Q9H9B1); assay: biochemical; conditions: 10 nM enzyme, H3 (1-21 aa) peptide, 1 h
T2 sequence (Q9H9B1 982-1266 limits assumed): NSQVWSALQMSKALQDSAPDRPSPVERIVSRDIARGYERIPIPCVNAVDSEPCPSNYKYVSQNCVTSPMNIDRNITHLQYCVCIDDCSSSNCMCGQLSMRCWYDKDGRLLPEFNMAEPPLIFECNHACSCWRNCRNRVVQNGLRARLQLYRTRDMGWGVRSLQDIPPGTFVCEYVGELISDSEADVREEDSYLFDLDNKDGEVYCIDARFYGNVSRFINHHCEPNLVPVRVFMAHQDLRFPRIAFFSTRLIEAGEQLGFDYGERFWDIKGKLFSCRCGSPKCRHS

SET7/9 Full-length = target: T3, SET7/9 Full-length (Homo sapiens, UniProt Q8WTS6); assay: Filter-paper methylation assay, SET7/9; format: biochemical; conditions: 150 nM enzyme, H3 (1-21 aa) peptide, 3 h
T3 construct: SET7/9 Full-length
T3 sequence (Q8WTS6 1-366): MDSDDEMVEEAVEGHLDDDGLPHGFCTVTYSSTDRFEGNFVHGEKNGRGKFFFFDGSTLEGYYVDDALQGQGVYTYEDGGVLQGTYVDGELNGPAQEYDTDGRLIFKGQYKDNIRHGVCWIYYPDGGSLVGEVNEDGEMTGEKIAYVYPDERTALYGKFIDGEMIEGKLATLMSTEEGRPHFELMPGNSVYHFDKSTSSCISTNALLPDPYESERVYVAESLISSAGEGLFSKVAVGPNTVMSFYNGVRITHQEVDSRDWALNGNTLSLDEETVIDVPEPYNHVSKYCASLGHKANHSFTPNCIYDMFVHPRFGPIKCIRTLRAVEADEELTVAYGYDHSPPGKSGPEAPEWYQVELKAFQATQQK

SET8 (191-352) = target: T4, SET8 (191-352) (Homo sapiens, UniProt Q9NQR1); assay: Filter-paper methylation assay, SET8; format: biochemical; conditions: 1000 nM enzyme, H4 (10-30 aa) peptide, 8 h
T4 construct: SET8 (191-352)
T4 sequence (Q9NQR1 191-352 isoform Q9NQR1-2): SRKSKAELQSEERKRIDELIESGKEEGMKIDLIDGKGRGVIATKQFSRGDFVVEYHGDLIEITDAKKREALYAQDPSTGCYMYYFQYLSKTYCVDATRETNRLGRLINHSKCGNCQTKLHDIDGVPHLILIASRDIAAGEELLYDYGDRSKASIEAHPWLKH

SETD2 (1347-1711) = target: T5, SETD2 (1347-1711) (Homo sapiens, UniProt Q9BYW2); assay: Filter-paper methylation assay, SETD2; format: biochemical; conditions: 250 nM enzyme, H3 (20-50 aa) peptide, 4 h
T5 construct: SETD2 (1347-1711)
T5 sequence (Q9BYW2 1347-1711): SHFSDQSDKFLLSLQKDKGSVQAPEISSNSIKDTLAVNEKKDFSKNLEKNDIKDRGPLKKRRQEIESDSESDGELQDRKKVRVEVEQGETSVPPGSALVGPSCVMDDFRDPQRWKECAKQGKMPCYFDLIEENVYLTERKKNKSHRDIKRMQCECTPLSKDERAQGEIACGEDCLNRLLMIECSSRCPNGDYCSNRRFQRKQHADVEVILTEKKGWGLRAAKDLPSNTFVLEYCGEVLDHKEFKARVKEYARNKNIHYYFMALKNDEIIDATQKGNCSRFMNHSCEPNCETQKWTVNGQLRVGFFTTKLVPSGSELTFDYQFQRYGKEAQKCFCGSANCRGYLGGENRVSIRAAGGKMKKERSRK

PRMT1 (10-352) = target: T6, PRMT1 (10-352) (Homo sapiens, UniProt Q99873); assay: Filter-paper methylation assay, PRMT1; format: biochemical; conditions: 100 nM enzyme, RGG peptide, 1.5 h
T6 construct: PRMT1 (10-352)

PRMT3 (211-531) = target: T7, PRMT3 (211-531) (Homo sapiens, UniProt O60678); assay: Filter-paper methylation assay, PRMT3; format: biochemical; conditions: 100 nM enzyme, RGG peptide, 3 h
T7 construct: PRMT3 (211-531)

SUV39H2 (112-410) = target: T8, SUV39H2 (112-410) (Homo sapiens, UniProt Q9H5I1); assay: Filter-paper methylation assay, SUV39H2; format: biochemical; conditions: 5 nM enzyme, H3 (1-21 aa) peptide, 4 h
T8 construct: SUV39H2 (112-410)

CARM1 (19-608) = target: T9, CARM1 (19-608) (Homo sapiens, UniProt Q86X55); assay: Filter-paper methylation assay, CARM1; format: biochemical; conditions: 300 nM enzyme, H3 (1-40 aa) peptide, 7 h; read-out: IC50 CARM1
T9 construct: CARM1 (19-608)
T9 sequence (Q86X55 19-608): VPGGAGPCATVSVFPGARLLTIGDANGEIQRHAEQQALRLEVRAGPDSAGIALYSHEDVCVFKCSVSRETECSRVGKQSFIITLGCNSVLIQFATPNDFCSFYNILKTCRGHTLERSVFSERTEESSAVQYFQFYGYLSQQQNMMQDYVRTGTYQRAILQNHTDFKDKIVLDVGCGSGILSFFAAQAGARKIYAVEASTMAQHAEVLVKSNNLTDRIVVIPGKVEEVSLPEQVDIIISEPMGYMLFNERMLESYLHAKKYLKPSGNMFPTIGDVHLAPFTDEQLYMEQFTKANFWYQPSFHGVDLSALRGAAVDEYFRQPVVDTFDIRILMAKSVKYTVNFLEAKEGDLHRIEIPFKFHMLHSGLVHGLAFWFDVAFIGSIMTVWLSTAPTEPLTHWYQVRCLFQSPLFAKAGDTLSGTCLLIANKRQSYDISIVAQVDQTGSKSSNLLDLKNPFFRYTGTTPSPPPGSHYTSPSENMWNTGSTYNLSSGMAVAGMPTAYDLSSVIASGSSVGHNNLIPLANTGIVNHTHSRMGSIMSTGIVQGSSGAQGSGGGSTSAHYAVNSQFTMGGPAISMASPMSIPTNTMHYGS

SMYD2 Full-length = target: T10, SMYD2 Full-length (Homo sapiens, UniProt Q9NRG4); assay: Filter-paper methylation assay, SMYD2; format: biochemical; conditions: 50 nM enzyme, p53 (360-393 aa) peptide, 10 h; read-out: IC50 SMYD2-FL
T10 construct: SMYD2 Full-length

[1] = tested on: histone 3 lysine 36 tri-methyl; assay: Cellular assay, histone methylation in HEK-293T cells; format: cell-based; conditions: "in vivo", up to 100 μM, 24 h, H3K36 tri-methyl blot

T10 sequence (Q9NRG4 whole entry, the tested form may be a part): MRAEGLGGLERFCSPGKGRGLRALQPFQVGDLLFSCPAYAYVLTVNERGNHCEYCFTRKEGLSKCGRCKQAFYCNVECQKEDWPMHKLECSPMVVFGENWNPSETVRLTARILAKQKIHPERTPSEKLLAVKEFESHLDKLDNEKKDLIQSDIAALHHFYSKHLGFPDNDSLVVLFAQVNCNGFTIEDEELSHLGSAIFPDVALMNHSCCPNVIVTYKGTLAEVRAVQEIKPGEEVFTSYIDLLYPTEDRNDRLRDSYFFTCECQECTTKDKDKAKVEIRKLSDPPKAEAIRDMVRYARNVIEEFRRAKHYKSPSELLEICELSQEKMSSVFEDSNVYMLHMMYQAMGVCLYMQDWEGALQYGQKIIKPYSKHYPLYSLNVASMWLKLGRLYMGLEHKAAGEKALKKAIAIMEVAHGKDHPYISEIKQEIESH
T7 sequence (O60678 211-531): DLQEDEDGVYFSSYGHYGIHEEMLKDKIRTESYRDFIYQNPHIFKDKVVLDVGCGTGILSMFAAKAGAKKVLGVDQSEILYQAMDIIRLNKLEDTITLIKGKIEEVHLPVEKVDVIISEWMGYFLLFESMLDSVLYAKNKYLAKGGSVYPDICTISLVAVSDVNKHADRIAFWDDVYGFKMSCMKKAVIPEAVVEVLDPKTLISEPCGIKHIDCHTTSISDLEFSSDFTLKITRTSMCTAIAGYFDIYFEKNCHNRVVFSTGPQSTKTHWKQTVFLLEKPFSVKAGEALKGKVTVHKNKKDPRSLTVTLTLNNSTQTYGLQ
T6 sequence (Q99873 10-352 isoform Q99873-3, species assumed): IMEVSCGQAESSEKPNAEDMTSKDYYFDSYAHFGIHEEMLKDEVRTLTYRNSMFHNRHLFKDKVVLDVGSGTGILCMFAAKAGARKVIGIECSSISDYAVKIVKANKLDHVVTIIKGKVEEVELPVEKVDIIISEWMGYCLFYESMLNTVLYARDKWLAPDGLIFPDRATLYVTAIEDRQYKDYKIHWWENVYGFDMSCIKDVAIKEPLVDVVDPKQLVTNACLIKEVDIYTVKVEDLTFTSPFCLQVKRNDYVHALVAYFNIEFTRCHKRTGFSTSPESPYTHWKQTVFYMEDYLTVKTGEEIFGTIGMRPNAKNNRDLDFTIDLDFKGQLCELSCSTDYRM
T8 sequence (Q9H5I1 112-410): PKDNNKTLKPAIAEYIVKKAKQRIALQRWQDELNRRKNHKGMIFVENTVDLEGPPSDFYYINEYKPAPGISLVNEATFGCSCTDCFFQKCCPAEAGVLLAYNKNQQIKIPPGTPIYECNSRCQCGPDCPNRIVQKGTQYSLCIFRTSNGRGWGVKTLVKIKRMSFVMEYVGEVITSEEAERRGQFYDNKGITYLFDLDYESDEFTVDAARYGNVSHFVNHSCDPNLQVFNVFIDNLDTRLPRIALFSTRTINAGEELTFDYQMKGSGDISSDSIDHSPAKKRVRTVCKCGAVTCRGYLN
T1 sequence (Q96KQ7 913-1193): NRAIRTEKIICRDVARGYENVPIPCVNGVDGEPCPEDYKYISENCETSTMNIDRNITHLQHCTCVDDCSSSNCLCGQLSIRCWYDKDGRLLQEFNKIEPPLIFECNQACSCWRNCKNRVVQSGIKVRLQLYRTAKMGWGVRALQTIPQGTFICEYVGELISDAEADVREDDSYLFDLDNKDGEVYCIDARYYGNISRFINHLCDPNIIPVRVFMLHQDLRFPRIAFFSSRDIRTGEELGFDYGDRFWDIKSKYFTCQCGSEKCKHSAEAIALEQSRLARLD

Compound: CCCN[C@@H](CC[C@H](N)C(=O)O)C[C@H]1O[C@@H](n2cnc3c(N)ncnc32)[C@H](O)[C@@H]1O [Compound 102]
- IC50 (G9a (913-1913)): > 100 µM
- IC50 (GLP1 (951-1235)): > 100 µM
- IC50 (SET7/9 Full-length): 2.2 µM
- IC50 (SET8 (191-352)): > 100 µM
- IC50 (SETD2 (1347-1711)): 0.8 µM
- IC50 (PRMT1 (10-352)): 9.5 µM
- IC50 (PRMT3 (211-531)): ~100 µM
- IC50 (SUV39H2 (112-410)): 9.8 µM
- IC50 (CARM1 (19-608)): 3 µM
- IC50 (SMYD2 Full-length): 0.5 µM
- inhibiting histone methyltransferase [1]: showed activity in inhibiting histone methyltransferase
